Results reported in ChEMBL document CHEMBL1144267, “New conformationally locked bicyclic N,O-nucleoside analogues of antiviral drugs” (2005).

Tests used:
Format in all cases: functional
[1] = system: Human alphaherpesvirus 1; experiment: Antiviral efficacy in Vero cells infected with HSV-1 at concentration of 400 uM
[2] = system: Human alphaherpesvirus 1; experiment: Antiviral efficacy in Vero cells infected with HSV-1 at concentration of 800 uM
[3] = system: Human alphaherpesvirus 1; experiment: Antiviral efficacy in Vero cells infected with HSV-1 at concentration of 100 uM
[4] = system: Human alphaherpesvirus 1; experiment: Antiviral efficacy in Vero cells infected with HSV-1 at concentration of 200 uM

| SMILES | Cells killed [1] | Cells killed [2] | Cells killed [3] | Cells killed [4] |
| --- | --- | --- | --- | --- |
| Nc1ccn(C2CC3CCCN3O2)c(=O)n1 (configuration not stated) | -6% | -67% | -3% | -3% |
| Cc1cn(C2CC3CCCN3O2)c(=O)[nH]c1=O (configuration not stated) | -12% | -55% | -5% | -10% |
| O=c1ccn(C2CC3CCCN3O2)c(=O)[nH]1 (configuration not stated) | -70% | -83% | -41% | -55% |
